Each block holds one molecule with its values, some of them ahead of it. Calls of active or inactive are those of the source.
Key:
Type in all cases: functional
[1] = biological target: Sphingosine 1-phosphate receptor 2 (Homo sapiens, UniProt O95136); test: Dose Response Cell Based Assay for Antagonists of the S1P2 Receptor. [Related pubchem assays: 856, 736 ]
[2] = biological target: NADPH oxidase 1 (Homo sapiens, UniProt Q9Y5S8); test: Late-stage luminescence-based cell-based dose response assay to identify inhibitors of NADPH oxidase 1 (NOX1): Synthesized analogs.
[3] = biological target: E3 ubiquitin-protein ligase Mdm2 (Homo sapiens, UniProt Q00987); test: MDM2-luc reporter signal enhancers, multi-concentration potency testing, MDM2 ubiquitin-protein ligase inhibitor program, whole-cell format, luminescence detection, 384-well microplate (AID 1394);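 further: MDM2 E3 inhibitors raise luminescence so EC50 is for signal enhancement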
[4] = biological target: T1, Carboxy-terminal domain RNA polymerase II polypeptide A small phosphatase 1 (Homo sapiens, UniProt Q9GZU7); test: CTDSP1 inhibitors, concentration-response, biochemical, absorbance readout, ultra-high-throughput screen actives (AID 540297)
T1 sequence (Q9GZU7 whole entry): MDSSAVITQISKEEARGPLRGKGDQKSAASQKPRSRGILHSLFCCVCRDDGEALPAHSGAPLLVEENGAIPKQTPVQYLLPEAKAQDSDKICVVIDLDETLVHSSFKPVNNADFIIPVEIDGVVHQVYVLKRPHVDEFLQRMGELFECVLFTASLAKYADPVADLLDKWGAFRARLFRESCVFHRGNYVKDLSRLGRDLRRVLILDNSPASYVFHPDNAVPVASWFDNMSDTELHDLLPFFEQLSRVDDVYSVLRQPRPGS

[5] = biological target: Protein Tat (Human immunodeficiency virus type 1 group M subtype B (isolate HXB2)(HIV-1), UniProt P04608);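 further: tat binding to TAR RNA read out by fluorescence polarization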
[6] = viability loss in THP-1 monocytes – THP-1 cells, cytotoxicity control for Vif-APOBEC3G degradation inhibitor project, dose response (AID 1117359); conditions: THP-1

Chain of NADPH oxidase 1 (Q9Y5S8 whole entry): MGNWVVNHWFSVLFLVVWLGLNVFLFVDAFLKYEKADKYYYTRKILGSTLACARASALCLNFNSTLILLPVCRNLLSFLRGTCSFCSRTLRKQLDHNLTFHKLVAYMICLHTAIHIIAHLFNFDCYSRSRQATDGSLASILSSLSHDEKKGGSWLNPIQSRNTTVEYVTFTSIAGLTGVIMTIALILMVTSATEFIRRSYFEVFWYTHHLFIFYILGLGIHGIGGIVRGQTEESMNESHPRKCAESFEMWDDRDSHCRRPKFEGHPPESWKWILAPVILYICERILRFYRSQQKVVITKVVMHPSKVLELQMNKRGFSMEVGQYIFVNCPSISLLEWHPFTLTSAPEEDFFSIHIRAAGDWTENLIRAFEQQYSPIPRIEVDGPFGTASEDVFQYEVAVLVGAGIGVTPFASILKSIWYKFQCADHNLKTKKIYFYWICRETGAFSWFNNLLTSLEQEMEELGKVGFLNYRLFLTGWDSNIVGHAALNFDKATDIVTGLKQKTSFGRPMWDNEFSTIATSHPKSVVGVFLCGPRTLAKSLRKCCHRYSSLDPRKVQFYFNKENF
Chain of Sphingosine 1-phosphate receptor 2 (O95136 whole entry): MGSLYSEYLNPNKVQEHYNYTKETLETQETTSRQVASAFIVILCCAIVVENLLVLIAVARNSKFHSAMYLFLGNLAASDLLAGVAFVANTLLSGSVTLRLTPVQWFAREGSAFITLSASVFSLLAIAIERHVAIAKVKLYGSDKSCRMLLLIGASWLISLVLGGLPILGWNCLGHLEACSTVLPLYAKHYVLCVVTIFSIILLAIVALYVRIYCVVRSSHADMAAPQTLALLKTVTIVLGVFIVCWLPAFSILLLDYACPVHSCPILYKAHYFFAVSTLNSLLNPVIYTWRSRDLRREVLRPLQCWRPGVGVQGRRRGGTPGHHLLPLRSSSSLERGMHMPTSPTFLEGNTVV
Chain of Protein Tat (P04608 whole entry): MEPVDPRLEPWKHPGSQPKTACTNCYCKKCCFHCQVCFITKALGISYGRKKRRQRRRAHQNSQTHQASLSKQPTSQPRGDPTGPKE
Chain of E3 ubiquitin-protein ligase Mdm2 (Q00987 whole entry, the tested form may be a part): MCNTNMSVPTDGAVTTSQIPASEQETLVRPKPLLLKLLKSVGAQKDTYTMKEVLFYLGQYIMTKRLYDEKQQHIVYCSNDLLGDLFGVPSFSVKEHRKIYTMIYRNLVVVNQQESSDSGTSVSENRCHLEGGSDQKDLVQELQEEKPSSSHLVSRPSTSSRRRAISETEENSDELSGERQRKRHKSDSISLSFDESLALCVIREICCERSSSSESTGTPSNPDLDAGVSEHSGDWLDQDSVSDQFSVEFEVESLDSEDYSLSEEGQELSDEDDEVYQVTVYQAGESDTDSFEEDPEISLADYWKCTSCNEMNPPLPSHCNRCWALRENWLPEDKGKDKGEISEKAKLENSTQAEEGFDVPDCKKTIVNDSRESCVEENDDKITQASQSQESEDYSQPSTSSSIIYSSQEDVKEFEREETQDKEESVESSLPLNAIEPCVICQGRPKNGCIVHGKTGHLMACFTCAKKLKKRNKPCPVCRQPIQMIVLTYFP

IC50 [1]: > 30 µM (not active)
Compound: CN(C)/C=N/C(=O)c1sc2cc(C(F)(F)F)cnc2c1-c1ccccc1

IC50 [2]: > 50 µM (not active)
Compound: O=C(/C=C/c1ccccc1)N1c2ccccc2Sc2ccc(C(F)(F)F)cc21

EC50 [3]: 16.1 µM (not active)
Compound: CCN(CC)C(=O)CN1CCN(c2ncccn2)CC1

IC50 [4]: 5.11 µM (active) | IC50 [5]: > 100 µM (active)
Compound: CN(CC(=O)Nc1ccc(F)cc1)C(=O)c1cc(-c2ccco2)nc2ccccc12
CC50 [6]: > 40 µM (active)

Source: ChEMBL document CHEMBL1201862, “PubChem BioAssay data set” (2004)
